Test results as given in patent US9636336B2, “Aminoester derivatives” (CHIESI FARMACEUTICI S.p.A., priority 2015, dated 2017).
pIC50, pKi: −log10 of the molar value. Read-outs that look alike come from different tables or passages of the source.

Columns and labels:
[1] = target: Human M3 receptor membranes (Homo sapiens (Human), UniProt P20309); test: M3 Receptor radioligand binding assay; settings: M3 Receptor radioligand binding assay; for pKi: Ki from IC50 by Cheng and Prusoff
Procedure: M3 Receptor Radioligand Binding Assay:
The assay is carried out in 96-well polypropylene plates in a volume of 250 μl. […] The final assay concentration of DMSO is 0.5% (v/v). The plates are sealed and incubated for 2 h at room temperature on an orbital shaker (slow speed). Membranes are harvested onto 96-well unifilter GF/C filter plates pre-treated with 0.5% polyethyleneimine (v/v), using a filter manifold, washed four times with 200 μl of assay buffer. The plates are dried before addition of 50 μl of microscint-0, sealed then read in a Trilux Microbeta scintillation counter. IC50 values are determined from competition curves using a non-linear curve fitting program. Ki values are calculated from IC50 values by the Cheng and Prusoff equation.

[2] = test system: Cch-evoked bronchoconstriction in rats; test: Bronchospasm, percentage of inhibition (Cch-induced bronchoconstriction, duration of action); type: in vivo, Male CD Sprague Dawley rats; settings: rat; for sub-maximal inhibition Dose: Dose producing about 80% (sub-maximal) inhibition of the bronchospasm after 1 h, intratracheal; for inhibition at 16 h: inhibition of bronchospasm 16 h after intratracheal administration of the sub-maximal inhibition dose
Procedure: Protocol of Bronchospasm—Percentage of Inhibition
Male CD Sprague Dawley rats (220-250 g) were purchased from Charles River Laboratories Italy (Calco, Lecco). Prior to use animals were acclimated for at least 5 days to the local vivarium conditions (room temperature: 20-24° C.; relative humidity: 40-70%), having free access to standard rat chow and softened tap water. All the procedures were performed in animal operating rooms according to ethical guidelines for the conduct of animal research (D. L.vo 116/92).
Treatment with Test Compounds
Animals were anaesthetised with Urethane (1.2 g/kg, i.p.) and a laryngoscope was moved forward into the mouth to visualize the trachea and guide the insertion of the tip of a custom made small diameter cannula directly into the trachea and located 1-2 mm above the bifurcation. Test compounds were dissolved in 100% dimethyl sulphoxide (DMSO) at 10^−2 M. The target concentration was obtained by dilution of the DMSO stock in saline. Test compounds were instilled locally into the trachea in a volume of 125 μl.
In order to assess the residual inhibitory activity of test compounds at 1-16 hours after their administration, rats were surgically prepared. In order to assess the Cch-induced bronchoconstriction in rats, the infusion of physiological solution was stopped and the bronchospastic agent injected into the jugular vein using the same cannula. Soon after washing the cannula with saline to ensure the complete administration of the bronchoconstrictor agent, the saline infusion was started again. Body temperature was kept constant at 37° C. by a heated blanket.
The trachea was cannulated and the lungs were ventilated artificially with a small animal constant volume ventilator (rodent ventilator mod. 7025, Ugo Basile, Comerio, Varese, Italy) at a frequency of 80 strokes/min and at a tidal volume of 2.5 ml/kg. To avoid spontaneous breathing, the animals were injected intravenously (i.v.) with pancuronium bromide (2 mg/kg). Bronchoconstriction was induced by the i.v. injection of Cch 50 μg/kg. In control experiments, repeated injections of this dose produced reproducible short-lasting (1-2 min duration) bronchospasms. Bronchoconstriction, quantified as a reduction of tidal volume, was evaluated according to the method described by Konzett & Roessler in Konzett H. and Roessler R., Versuchanornungzu untersuchungen ande bronchialmuskulatur. Arch. Exp. Path. Pharmak.; 195:71-74 (1940), which is incorporated herein by reference in its entirety.
Systemic blood pressure and changes in airway resistance were monitored with a digital pressure transducer connected to a bridge amplifier (PowerLab; Ugo Basile, Italy) and recorded using Chart 5 software (Ugo Basile, Italy).
After stabilization of artificial breathing and blood pressure, animals were injected (i.v.) with Cch every 3 min, until 3 stable and reproducible basal responses were obtained. […] The effect of test compounds was expressed as % inhibition of Cch-evoked bronchoconstriction in time-matched, vehicle-treated, animals (controls).

COPD patients = settings: cited from earlier work
[3] = test system: smoking model of COPD in mice; settings: cited from earlier work
[4] = patients with severe disease, frequent exacerbations and mucus hypersecretion

Chain of Human M3 receptor membranes (P20309 whole entry): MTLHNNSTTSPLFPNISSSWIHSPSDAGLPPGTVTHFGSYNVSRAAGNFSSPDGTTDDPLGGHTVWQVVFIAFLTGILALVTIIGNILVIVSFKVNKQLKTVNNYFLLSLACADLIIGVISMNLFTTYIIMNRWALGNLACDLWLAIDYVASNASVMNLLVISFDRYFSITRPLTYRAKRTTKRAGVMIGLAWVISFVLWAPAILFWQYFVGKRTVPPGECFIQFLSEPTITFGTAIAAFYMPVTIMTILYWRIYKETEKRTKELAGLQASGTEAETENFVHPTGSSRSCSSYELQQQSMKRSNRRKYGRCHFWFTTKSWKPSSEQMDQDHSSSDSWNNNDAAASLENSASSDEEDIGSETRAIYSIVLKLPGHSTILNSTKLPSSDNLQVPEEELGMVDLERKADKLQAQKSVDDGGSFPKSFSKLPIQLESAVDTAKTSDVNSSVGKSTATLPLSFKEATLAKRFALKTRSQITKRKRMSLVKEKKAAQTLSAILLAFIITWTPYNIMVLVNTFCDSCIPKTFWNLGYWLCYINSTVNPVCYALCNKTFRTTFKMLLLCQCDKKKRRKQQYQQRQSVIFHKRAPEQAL

SMILES	pKi [1]	pIC50 ([1]; read-out: M3 IC50)	sub-maximal inhibition Dose [2] [nmol/kg]	inhibition at 16 h [2] [%]	pIC50 ([1]; read-out: M3 IC50 activity)	reduction of numbers of neutrophils in sputum (COPD patients; COPD patients, oral, over 4 weeks) [%]	improvement of FEV 1 (COPD patients; [4])	reduction of exacerbation (COPD patients; [4])	lung inflammation and emphysema [3]
COc1ccc([C@H](Cc2c(Cl)c[n+]([O-])cc2Cl)OC(=O)c2ccc(CNC(C(=O)OC3CCN(C)CC3)c3ccccc3)s2)cc1OC (single isomer, unassigned) [Example 87c, reference compound]	9.52	9.30	30	<10					
COc1ccc([C@H](Cc2c(Cl)c[n+]([O-])cc2Cl)OC(=O)c2ccc(CNC(C(=O)OCC3CCN(C)CC3)c3ccccc3)s2)cc1OC (stereo partly drawn) [Example 87, [(1S)-2-(3,5-dichloro-1-oxido-pyridin-1-ium-4-yl)-1-(3,4-dimethoxyphenyl)ethyl] 5-[[[2-[(1-methyl-4-piperidyl)methoxy]-2-oxo-1-phenyl-ethyl]amino]methyl]thiophene-2-carboxylate]			10	>90					
COc1ccc([C@H](Cc2c(Cl)c[n+]([O-])cc2Cl)OC(=O)c2ccc(CNC(C(=O)O[C@H]3CCN(C)C3)c3ccccc3)s2)cc1OC (single isomer, unassigned) [Example 78c, reference compound]	9.27	8.97	100	26					
COc1ccc([C@H](Cc2c(Cl)c[n+]([O-])cc2Cl)OC(=O)c2ccc(CNC(CO)(C(=O)OC3CCN(C)CC3)c3ccccc3)s2)cc1OC (single isomer, unassigned) [Example 105c, reference compound]	9.64	9.35	10	35					
COc1ccc([C@H](Cc2c(Cl)c[n+]([O-])cc2Cl)OC(=O)c2ccc(CNC(CO)(C(=O)OCC3CCN(C)CC3)c3ccccc3)s2)cc1OC (stereo partly drawn) [Example 105, [(1S)-2-(3,5-dichloro-1-oxido-pyridin-1-ium-4-yl)-1-(3,4-dimethoxyphenyl)ethyl] 5-[[[1-(hydroxymethyl)-2-[(1-methyl-4-piperidyl)methoxy]-2-oxo-1-phenyl-ethyl]amino]methyl]thiophene-2-carboxylate]			30	88					
COc1ccc([C@H](Cc2c(Cl)c[n+]([O-])cc2Cl)OC(=O)c2ccc(CNC(C(=O)OC[C@H]3CCN(C)C3)c3ccccc3)s2)cc1OC (stereo partly drawn) [Example 78, [(1S)-2-(3,5-dichloro-1-oxido-pyridin-1-ium-4-yl)-1-(3,4-dimethoxyphenyl)ethyl] 5-[[[2-[[(3S)-1-methylpyrrolidin-3-yl]methoxy]-2-oxo-1-phenyl-ethyl]amino]methyl]thiophene-2-carboxylate]			30	51	8.00 to 9.00				
O=C(Nc1c(Cl)cncc1Cl)c1ccc(OC(F)F)c(OCC2CC2)c1 [roflumilast]						36	approximately 50 mL	about 15%	inhibits lung inflammation and emphysema
